From ChEMBL document CHEMBL4422649, “Soluble-type small-molecule CD4 mimics as HIV entry inhibitors” (Bioorg Med Chem Lett, 2019)
pIC50: −log10 of the molar value. ≈ marks a conversion by molar mass, not a printed value.

Key:
[1] = target: Envelope glycoprotein gp160 (Human immunodeficiency virus 1, UniProt Q6QLK5); test: Binding affinity to HIV1 cYTA48P envelope glycoprotein gp120 infected in human TZM-b1 cells assessed as induction of conformational changes measured after 48 hrs; assay type: cell-based
[2] = Cytotoxicity against human TZM-b1 cells assessed as reduction in cell viability by CCK8 assay; assay type: cell-based
[3] = Aqueous solubility of the compound in phosphate buffered saline; assay type: physicochemical
[4] = target: Envelope glycoprotein gp160 (Human immunodeficiency virus 1) (UniProt Q6QLK5); test: Binding affinity to HIV1 cYTA48P envelope glycoprotein gp120 infected in human TZM-b1 cells assessed as induction of conformational changes by measuring combination index at 15:1 ratio of test compound to KD-247 measured after 48 hrs; assay type: cell-based
[5] = target: Envelope glycoprotein gp160 (Human immunodeficiency virus 1) (UniProt Q6QLK5); test: Binding affinity to HIV1 cYTA48P envelope glycoprotein gp120 infected in human TZM-b1 cells assessed as induction of conformational changes by measuring combination index at 450:1 ratio of test compound to KD-247 measured after 48 hrs; assay type: cell-based

Chain of Envelope glycoprotein gp160 (Q6QLK5 whole entry): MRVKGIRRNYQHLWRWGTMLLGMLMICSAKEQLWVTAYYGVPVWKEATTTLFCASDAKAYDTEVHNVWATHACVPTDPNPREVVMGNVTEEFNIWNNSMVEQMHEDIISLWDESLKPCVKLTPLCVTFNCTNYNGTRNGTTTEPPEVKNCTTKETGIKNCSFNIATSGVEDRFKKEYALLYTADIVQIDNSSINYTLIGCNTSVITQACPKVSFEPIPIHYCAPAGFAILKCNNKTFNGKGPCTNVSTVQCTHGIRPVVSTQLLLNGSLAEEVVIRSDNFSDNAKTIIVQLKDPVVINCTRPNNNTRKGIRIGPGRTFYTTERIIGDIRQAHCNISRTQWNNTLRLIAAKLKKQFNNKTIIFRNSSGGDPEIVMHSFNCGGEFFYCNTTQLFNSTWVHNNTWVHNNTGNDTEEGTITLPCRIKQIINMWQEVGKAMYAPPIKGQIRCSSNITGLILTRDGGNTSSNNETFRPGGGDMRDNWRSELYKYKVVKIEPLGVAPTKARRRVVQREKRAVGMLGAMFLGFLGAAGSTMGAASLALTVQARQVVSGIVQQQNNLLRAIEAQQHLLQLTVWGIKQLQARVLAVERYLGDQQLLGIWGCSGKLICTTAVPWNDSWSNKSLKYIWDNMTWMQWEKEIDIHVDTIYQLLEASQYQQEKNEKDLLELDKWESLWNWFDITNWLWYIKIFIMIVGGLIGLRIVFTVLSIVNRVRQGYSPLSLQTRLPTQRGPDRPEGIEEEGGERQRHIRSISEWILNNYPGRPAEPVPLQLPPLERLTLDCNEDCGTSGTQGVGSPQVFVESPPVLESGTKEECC
Chain of Envelope glycoprotein gp160 (Human immunodeficiency virus 1) (Q6QLK5 1-814): as the sequence (Q6QLK5 whole entry) above

SMILES | pIC50 [1] | CC50 [2] | solubility [3] | CI [4] | CI [5]
CC1(C)CC(NC(=O)C(=O)Nc2ccc(Cl)cc2)CC(C)(C)N1 | 6.77 | 116 µM | 1.39 mM (≈ 470 µg/mL) | 0.52 | –
CC1(C)CC(NC(=O)C(=O)Nc2cnc(F)c(F)c2)CC(C)(C)N1 | 5.12 | > 300 µM | – | – | –
CC1(C)CC(NC(=O)C(=O)Nc2ccc(C(F)(F)F)cn2)CC(C)(C)N1 | 4.34 | > 300 µM | – | – | –
CC1(C)CC(NC(=O)C(=O)Nc2ccnc(Cl)c2)CC(C)(C)N1 | 5.64 | > 300 µM | – | – | 0.2
COc1ccc(NC(=O)C(=O)NC2CC(C)(C)NC(C)(C)C2)cn1 | 4.57 | > 300 µM | – | – | –
CC1(C)CC(NC(=O)C(=O)Nc2ccnc(Br)c2)CC(C)(C)N1 | 5.44 | 295 µM | – | – | 0.16
O=C(Nc1ccc(Br)nc1)C(=O)NC1CCNC2(CCCCC2)C1 (centres undefined) | 5.92 | 180 µM | – | – | –
CC1(C)CC(NC(=O)C(=O)Nc2ccnc(F)c2)CC(C)(C)N1 | 4.20 | > 300 µM | – | – | –
CC1(C)CC(NC(=O)C(=O)Nc2ccc(Cl)nc2)CC(C)(C)N1 | 5.40 | > 300 µM | – | – | –
CC1(C)CC(NC(=O)C(=O)Nc2cccnc2Cl)CC(C)(C)N1 | < 4.00 | > 300 µM | – | – | –
CC1(C)CC(NC(=O)C(=O)Nc2ccc(I)cn2)CC(C)(C)N1 | 4.17 | 205 µM | – | – | –
CC1(C)CC(NC(=O)C(=O)Nc2ccncc2)CC(C)(C)N1 | < 4.00 | > 300 µM | – | – | –
CC1(C)CC(NC(=O)C(=O)Nc2ccc(F)nc2)CC(C)(C)N1 | 5.68 | > 300 µM | 6.67 mM (≈ 2150 µg/mL) | – | 0.34
O=C(Nc1ccc(F)nc1)C(=O)NC1CCNC2(CCCCC2)C1 (centres undefined) | 6.34 | > 300 µM | – | – | –
Cc1cccc(NC(=O)C(=O)NC2CC(C)(C)NC(C)(C)C2)n1 | < 4.00 | 257 µM | – | – | –
CC1(C)CC(NC(=O)C(=O)Nc2cccnc2)CC(C)(C)N1 | < 4.00 | > 300 µM | – | – | –
CC1(C)CC(NC(=O)C(=O)Nc2ccc(Br)cn2)CC(C)(C)N1 | 4.38 | 71 µM | – | – | –
CC1(C)CC(NC(=O)C(=O)Nc2ccc(F)cn2)CC(C)(C)N1 | 4.23 | > 300 µM | – | – | –
CC1(C)CC(NC(=O)C(=O)Nc2ccc(Cl)cn2)CC(C)(C)N1 | 4.21 | > 300 µM | – | – | –
O=C1Nc2ccc(Cl)cc2[C@@](C#CC2CC2)(C(F)(F)F)O1 [EFAVIRENZ] | 8.46 | 20 µM | – | – | –
CC1(C)CC(NC(=O)C(=O)Nc2ccc(Br)nc2)CC(C)(C)N1 | 5.92 | > 300 µM | 3.62 mM (≈ 1390 µg/mL) | – | –
